Reference: ChEMBL document CHEMBL2146463, “Apoptosis-inducing effects of distichamine and narciprimine, rare alkaloids of the plant family Amaryllidaceae” (Bioorg Med Chem Lett, 2012)
pEC50, pIC50: −log10 of the molar value. Active and inactive are the calls of the source. The calls are words filed in the database; no cut-off is given here.

Tests used:
[1] = tested on: K562; assay: Cytotoxicity against human K562 cells after 72 hrs by Calcein AM assay; type: functional, cell-based; details: K562, 72 h
[2] = tested on: CCRF-CEM; assay: Cytotoxicity against human CEM cells after 72 hrs by Calcein AM assay; type: functional, cell-based
[3] = tested on: HeLa; assay: Cytotoxicity against human HeLa cells after 72 hrs by Calcein AM assay; type: functional, cell-based
[4] = tested on: G-361; assay: Cytotoxicity against human G361 cells after 72 hrs by Calcein AM assay; type: functional, cell-based; details: G-361, 72 h
[5] = tested on: MCF7; assay: Cytotoxicity against human MCF7 cells after 72 hrs by Calcein AM assay; type: functional, cell-based; details: MCF7, 72 h
[6] = tested on: BJ; assay: Cytotoxicity against human BJ cells after 72 hrs by Calcein AM assay
[7] = tested on: MCF7; assay: Cytotoxicity against human MCF7 cells; type: functional, cell-based
[8] = tested on: CCRF-CEM; assay: Induction of apoptosis in human CEM cells assessed decrease level of Mcl-1 at 20 uM after 24 hrs by Western Blot analysis; type: functional, cell-based
[9] = tested on: CCRF-CEM; assay: Induction of apoptosis in human CEM cells assessed increase in expression of p53 after 24 hrs by Western Blot analysis; type: functional, cell-based
[10] = tested on: CCRF-CEM; assay: Cell cycle arrest in human CEM cells assessed as increase accumulation at G2/M phase after 24 hrs by FACS analysis; type: functional, cell-based
[11] = tested on: CCRF-CEM; assay: Induction of apoptosis in human CEM cells assessed as increase in activity of caspases-3/7 at 20 uM after 24 hrs by fluorescence analysis relative to control; type: functional
[12] = tested on: CCRF-CEM; assay: Induction of apoptosis in human CEM cells assessed increase in expression of p53 at 20 uM after 24 hrs by Western Blot analysis; type: functional, cell-based
[13] = tested on: CCRF-CEM; assay: Induction of apoptosis in human CEM cells assessed as decrease level of procaspase-3 at 10 uM after 24 hrs by Western Blot analysis; type: functional, cell-based
[14] = tested on: CCRF-CEM; assay: Induction of apoptosis in human CEM cells assessed increase in expression of p53 at 10 uM after 24 hrs by Western Blot analysis; type: functional, cell-based
[15] = tested on: CCRF-CEM; assay: Cell cycle arrest in human CEM cells assessed as accumulation at sub-G1 phase at 1 to 20 uM after 24 hrs by FACS analysis relative to control; type: functional
[16] = tested on: CCRF-CEM; assay: Induction of apoptosis in human CEM cells assessed as decrease level of procaspase-3 after 24 hrs by Western Blot analysis; type: functional, cell-based
[17] = tested on: CCRF-CEM; assay: Induction of apoptosis in human CEM cells assessed as increase cleavage of PARP at 20 uM after 24 hrs by Western Blot analysis; type: functional, cell-based
[18] = tested on: CCRF-CEM; assay: Induction of apoptosis in human CEM cells assessed activity of Bcl-2 at 1 to 20 uM after 24 hrs by Western Blot analysis; type: functional, cell-based
[19] = tested on: CCRF-CEM; assay: Induction of apoptosis in human CEM cells assessed as […] after 24 hrs by Western Blot analysis; type: functional, cell-based
[20] = tested on: CCRF-CEM; assay: Cell cycle arrest in human CEM cells assessed as decrease accumulation at S phase at 1 to 20 uM after 24 hrs by FACS analysis; type: functional, cell-based
[21] = tested on: CCRF-CEM; assay: Induction of apoptosis in human CEM cells assessed as decrease level of procaspase-3 at 20 uM after 24 hrs by Western Blot analysis; type: functional, cell-based
[22] = tested on: CCRF-CEM; assay: Induction of apoptosis in human CEM cells assessed as increase cleavage of PARP at 10 uM after 24 hrs by Western Blot analysis; type: functional, cell-based
[23] = tested on: CCRF-CEM; assay: Cell cycle arrest in human CEM cells assessed as decrease accumulation at G0/G1 phase at 1 to 20 uM after 24 hrs by FACS analysis; type: functional, cell-based
[24] = Induction of apoptosis in rat 5123TC cells assessed as apoptotic index at 25 uM after 48 hrs; type: functional
[25] = Induction of apoptosis in rat 5123TC cells after 48 hrs; type: functional; details: read-out: ED50 (the source's name)
[26] = tested on: CCRF-CEM; assay: Induction of apoptosis in human CEM cells assessed as increase cleavage of PARP at 1 to 20 uM after 24 hrs by Western Blot analysis; type: functional, cell-based
[27] = tested on: CCRF-CEM; assay: Induction of apoptosis in human CEM cells assessed as decrease level of procaspase-3 at 1 to 20 uM after 24 hrs by Western Blot analysis; type: functional, cell-based
[28] = tested on: CCRF-CEM; assay: Cell cycle arrest in human CEM cells assessed as accumulation at sub-G1 phase at 20 uM after 24 hrs by FACS analysis relative to control; type: functional, cell-based
[29] = tested on: CCRF-CEM; assay: Induction of apoptosis in human CEM cells assessed decrease level of Mcl-1 at 1 to 20 uM after 24 hrs by Western Blot analysis; type: functional, cell-based
[30] = tested on: NCI-H460; assay: Cytotoxicity against human NCI-H460 cells by MTT assay; type: functional, cell-based

Work on `COc1ccc2c3c1O[C@H]1C[C@@H](O)CC[C@]31CCN(C)C2` [LYCORAMINE] yielded a pIC50 [1] of less than 4.30, a pIC50 [2] of less than 4.30 and a pIC50 [3] of less than 4.30. The pIC50 [4] was less than 4.30, the pIC50 [5] was less than 4.30 and the pIC50 [6] was less than 4.30.
In the case of `COc1c2c(cc3c1OCO3)[C@]13C=C[C@H](OC)C[C@H]1N(CC3)C2` [BUPHANIDRINE], the pIC50 [1] was less than 4.30, the pIC50 [2] was less than 4.30 and the pIC50 [3] was less than 4.30. The pIC50 [4] was less than 4.30, the pIC50 [5] was less than 4.30 and the pIC50 [6] was 4.58.
Molecule `O=C1N[C@H]2[C@H](O)[C@H](O)[C@@H](O)[C@H](O)[C@@H]2c2cc3c(c(O)c21)OCO3` [PANCRATISTATIN] has a pIC50 [7] of 7.15.
With `O=C1N[C@@H]2C(=C[C@H](O)[C@@H](O)[C@H]2O)c2cc3c(c(O)c21)OCO3` [NARCICLASINE] the pIC50 [7] was 8.00.
For `COC1=CC(=O)[C@@]23CCN(Cc4c2cc2c(c4OC)OCO2)[C@@H]3C1` [DISTICHAMINE], the Activity [8] was “Active”, the Activity [9] was “Dose-dependent effect” and the Activity [10] was “Dose-dependent effect”. The “fold change (FC)” value [11] was 12.5, the pIC50 [1] was 5.39 and the Activity [12] was “Active”. The pIC50 [2] was 5.35, the Activity [13] was “Active” and the pIC50 [3] was 5.66. The Activity [14] was “Active”, the Activity [15] was 23.7% and the pIC50 [4] was 4.83. For the same molecule, the Activity [16] was “Dose-dependent effect”, the Activity [17] was “Active” and the Activity [18] was “inactive”. For the same molecule, the Activity [19] was “Dose-dependent effect”, the Activity [20] was “Active” and the pIC50 [5] was 5.64. The Activity [21] was “Active”, the pIC50 [6] was 4.98 and the Activity [22] was “Active”. The Activity [23] was “Active”.
Work on `CO[C@@H]1C=C[C@@]23c4cc5c(cc4CN(C[C@@H]2O)[C@H]3C1)OCO5` [(+)-HAEMANTHAMINE] yielded a pIC50 [1] of 5.47, a pIC50 [2] of 5.68 and an Activity [24] of 90%. For the same molecule, the pIC50 [3] was 5.15, the pIC50 [4] was 5.43 and the pEC50 [25] was 4.82. For the same molecule, the pIC50 [5] was 5.09 and the pIC50 [6] was 5.57.
For `CN[C@@H]1C[C@H]2O[C@@](C)([C@@H]1OC)n1c3ccccc3c3c4c(c5c6ccccc6n2c5c31)C(=O)NC4` [STAUROSPORINE], the pIC50 [2] was 7.64.
Work on `COc1ccc2c3c1O[C@H]1CC(=O)C=C[C@@]31CCN(C)C2` [NARWEDINE] yielded a pIC50 [1] of less than 4.30, a pIC50 [2] of 4.50 and a pIC50 [3] of less than 4.30. It also gave a pIC50 [4] of less than 4.30, a pIC50 [5] of less than 4.30 and a pIC50 [6] of less than 4.30.
With `O[C@H]1[C@H]2c3cc4c(cc3CN3CCC(=C[C@@H]1O)[C@H]23)OCO4` [LYCORINE] the pIC50 [1] was 5.44, the Activity [2] was “Dose-dependent effect” and the pIC50 [2] was 5.80. For the same molecule, the pIC50 [3] was 4.97, the pIC50 [4] was 5.30 and the pIC50 [5] was 4.89. For the same molecule, the pIC50 [6] was 5.72.
`CO[C@H]1C=C[C@@]23c4cc5c(cc4CN(C[C@@H]2O)[C@H]3C1)OCO5` showed an Activity [24] of 90% and a pEC50 [25] of 4.90.
In the case of `O=c1[nH]c2c(O)cccc2c2cc3c(c(O)c12)OCO3` [NARCIPRIMINE], the Activity [9] was “Dose-dependent effect”, the Activity [10] was “Dose-dependent effect” and the Activity [26] was “inactive”. The “fold change (FC)” value [11] was 1.8, the pIC50 [1] was less than 4.30 and the pIC50 [2] was 4.88. The Activity [27] was “inactive”, the pIC50 [3] was less than 4.30 and the pIC50 [4] was less than 4.30. For the same molecule, the Activity [18] was “inactive”, the Activity [28] was “Active” and the Activity [20] was “Active”. For the same molecule, the pIC50 [5] was less than 4.30, the pIC50 [6] was 5.10 and the Activity [29] was “inactive”. For the same molecule, the Activity [23] was “Active”.
`O=C(O[C@H]1[C@H](O)[C@@H](O)[C@@H](O)[C@@H]2NC(=O)c3c(cc4c(c3O)OCO4)[C@H]21)c1ccccc1` [PHENPANSTATIN] showed a pIC50 [30] of 9.64.
`COc1ccc2c3c1O[C@H]1C[C@@H](O)C=C[C@@]31CCN(C)C2` [GALANTAMINE] gave a pIC50 [1] of less than 4.30, a pIC50 [2] of less than 4.30 and a pIC50 [3] of less than 4.30. For the same molecule, the pIC50 [4] was less than 4.30, the pIC50 [5] was less than 4.30 and the pIC50 [6] was less than 4.30.
`COc1c2c(cc3c1[C@@H](O)N1CC[C@]34[C@H]3O[C@H]3[C@H](OC)C[C@@H]14)OCO2` showed an Activity [24] of 25%.
Molecule `COc1cc2c(cc1OC)[C@H]1[C@H]3C(=CC[C@H]1OC2=O)CCN3C` [HOMOLYCORINE] has a pIC50 [1] of 4.71, a pIC50 [2] of 4.82 and a pIC50 [3] of less than 4.30. For the same molecule, the pIC50 [4] was 4.48, the pIC50 [5] was less than 4.30 and the pIC50 [6] was 4.68.
